# Reference: patent US20250230138A1, “COMPOUNDS HAVING A T-STRUCTURE FORMED BY AT LEAST FOUR CYCLES FOR USE IN THE TREATMENT OF CANCER AND OTHER INDICATIONS” (TheRas, Inc., priority 2022, published 2025)
# Like-named read-outs stand apart in the source and are kept apart here.
# Key:
# [1] = biological target: KRAS-PI3Kα interaction (KRAS-Q25A binding to avi-tagged full length PI3Kα) (Homo sapiens (Human), UniProt P42336); assay: Disrupting KRAS-PI3Kα interaction by SPR inhibition assay; conditions: KRAS-Q25A at 20 μM, 25° C.
# Chain of KRAS-PI3Kα interaction (KRAS-Q25A binding to avi-tagged full length PI3Kα) (P42336 whole entry, looked up, stated change not applied): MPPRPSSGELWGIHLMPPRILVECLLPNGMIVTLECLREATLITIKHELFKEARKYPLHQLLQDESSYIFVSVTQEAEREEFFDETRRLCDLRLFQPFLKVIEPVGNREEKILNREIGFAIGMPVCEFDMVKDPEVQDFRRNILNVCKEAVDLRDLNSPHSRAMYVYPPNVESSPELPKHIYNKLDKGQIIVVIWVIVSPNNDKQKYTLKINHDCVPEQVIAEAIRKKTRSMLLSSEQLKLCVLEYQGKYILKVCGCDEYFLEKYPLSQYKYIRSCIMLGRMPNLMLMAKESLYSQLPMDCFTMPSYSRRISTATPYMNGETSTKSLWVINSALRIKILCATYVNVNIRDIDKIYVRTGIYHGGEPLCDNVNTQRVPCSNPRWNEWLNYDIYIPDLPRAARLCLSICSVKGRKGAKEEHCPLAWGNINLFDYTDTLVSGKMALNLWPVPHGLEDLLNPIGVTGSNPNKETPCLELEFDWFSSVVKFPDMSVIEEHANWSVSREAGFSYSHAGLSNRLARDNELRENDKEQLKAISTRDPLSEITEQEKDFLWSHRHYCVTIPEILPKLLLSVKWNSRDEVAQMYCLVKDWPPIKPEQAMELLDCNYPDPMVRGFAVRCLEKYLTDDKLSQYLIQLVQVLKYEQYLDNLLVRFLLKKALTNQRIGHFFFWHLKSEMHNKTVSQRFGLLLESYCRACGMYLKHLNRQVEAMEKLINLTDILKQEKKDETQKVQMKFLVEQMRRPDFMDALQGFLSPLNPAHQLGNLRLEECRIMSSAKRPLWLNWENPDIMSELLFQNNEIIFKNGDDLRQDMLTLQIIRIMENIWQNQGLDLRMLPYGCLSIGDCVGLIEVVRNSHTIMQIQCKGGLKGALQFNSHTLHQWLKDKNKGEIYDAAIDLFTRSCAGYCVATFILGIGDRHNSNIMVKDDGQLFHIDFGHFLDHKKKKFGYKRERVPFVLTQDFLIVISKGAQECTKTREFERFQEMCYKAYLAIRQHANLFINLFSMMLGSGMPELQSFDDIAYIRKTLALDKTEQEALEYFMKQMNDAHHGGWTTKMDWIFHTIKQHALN
# Chain of KRAS-PI3Kα interaction (KRAS-Q25A binding to avi-tagged full length PI3Kα) (P27986 whole entry partner, looked up): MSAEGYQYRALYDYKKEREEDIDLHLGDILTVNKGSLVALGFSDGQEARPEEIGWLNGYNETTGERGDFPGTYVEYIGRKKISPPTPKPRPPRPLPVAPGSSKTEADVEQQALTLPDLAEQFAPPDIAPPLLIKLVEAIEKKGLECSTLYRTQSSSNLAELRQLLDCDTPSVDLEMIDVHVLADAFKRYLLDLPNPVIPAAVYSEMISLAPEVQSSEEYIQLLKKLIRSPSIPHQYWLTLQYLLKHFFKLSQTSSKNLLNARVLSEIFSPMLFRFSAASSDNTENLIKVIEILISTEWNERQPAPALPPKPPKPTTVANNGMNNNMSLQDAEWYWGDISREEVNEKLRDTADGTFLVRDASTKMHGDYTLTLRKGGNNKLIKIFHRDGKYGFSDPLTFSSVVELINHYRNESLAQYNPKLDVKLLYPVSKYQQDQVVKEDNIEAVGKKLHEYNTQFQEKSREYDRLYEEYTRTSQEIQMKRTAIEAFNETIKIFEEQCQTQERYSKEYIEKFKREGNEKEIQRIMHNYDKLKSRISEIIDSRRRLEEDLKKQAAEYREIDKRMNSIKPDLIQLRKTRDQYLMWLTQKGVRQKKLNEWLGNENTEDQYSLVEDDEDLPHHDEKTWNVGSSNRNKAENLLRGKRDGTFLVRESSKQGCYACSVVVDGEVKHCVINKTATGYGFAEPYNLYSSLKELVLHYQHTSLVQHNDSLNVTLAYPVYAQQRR
# Description: SPR binding experiments were collected on a Biacore 8K Instrument (Cytiva). Neutravidin (Pierce) was amine coupled to the carboxymethylated dextran surface of a CM5 sensor chip (Cytiva) using standard amine coupling chemistry. The CM5 chip surface was first activated with 0.1 M N-hydroxy succinimide and 0.4 M N-ethyl-N′-(3-dimethyl aminopropyl) carbodiimide at a flow rate of 20 μL/min using 20 mM HEPES pH 7.4, 150 mM NaCl as the running buffer. Next, neutravidin was diluted to 20 μg/mL in 10 mM sodium acetate (pH 4.5) and injected on all flow cells until a density of approximately 10,000 response units (RU) was immobilized. Activated amine groups were quenched with an injection of 1 M ethanolamine (pH 8.0). 300-500 RU of avi-tagged full length PI3Kα was captured on all flow cells in 20 mM HEPES pH 7.4, 150 mM NaCl, 5 mM MgCl2, 1 mM TCEP, 0.05% tween 20, 5% DMSO buffer. KRAS-Q25A at 20 μM was mixed with 8 concentrations of compound (50 nM-100 μM) and injected over the full-length PI3Kα at 30 μL/min and 25° C. Steady-state levels of KRAS binding were recorded and fit with a 4-parameter inhibition model to determine the IC50 values.
# [2] = biological target: Cys242 in human PIK3CA (157-299) (Homo sapiens (Human), UniProt P42336); assay: Covalent modification assay using MALDI-TOF MS; assay type: biochemical; conditions: 4 h reaction time point
# Chain of Cys242 in human PIK3CA (157-299) (P42336 157-299): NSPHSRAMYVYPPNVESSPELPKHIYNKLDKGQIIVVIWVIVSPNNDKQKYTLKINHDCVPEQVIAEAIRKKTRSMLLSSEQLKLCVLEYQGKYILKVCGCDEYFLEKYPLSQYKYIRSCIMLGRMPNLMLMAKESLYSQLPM
# How it was run: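 Covalent adduct formation was read by linear-mode MALDI-TOF with sinapinic acid matrix, reported as modified-protein peak height divided by total protein peak heights. Reactions held PIK3CA (157-299) at 1 or 3.33 μM in HEPES/NaCl/MgCl2 buffer, pH 7.3, sampled after 15 min to 4 h at room temperature.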
# pAKT in BT474 cells = assay: Cell-based pAKT HTRF assay in BT474 cells; conditions: BT474 cells, 4 hr incubation, read-out: pAKT inhibition IC50 in BT474 cells
# How it was run: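 Cells grown in DMEM with 10% FBS were exposed to compounds for 4 hr in 0.25% DMSO, using a 9-point, 3-fold dilution series that starts at 3 μM. Lysates were incubated with d2 and Eu Cryptate antibodies for 4–24 h at room temperature, and HTRF was read at 615 nm emission.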
# [3] = 3.33 μM protein target, 1:7.5 protein to compound ratio (compounds 1-852)
# [4] = 1 μM protein target, 1:5 protein to compound ratio (compounds 853-1279)
structure (smiles),measurement,setting,value
"COCCOc1ccccc1-c1c(-c2ccccc2)nc(-c2ccc3c(c2)CCNC3)c2ccsc12 [Compound 4, 7-[2-(2-methoxyethoxy)phenyl]-6-phenyl-4-(1,2,3,4-tetrahydroisoquinolin-6-yl)thieno[3,2-c]pyridine]",IC50,[1],5 to 25 µM
"C=CC(=O)Nc1ccc2nc(-c3nc(-c4ccc5c(c4)CCNC5)c4ccsc4c3-c3ccc(F)cc3OCCOC)[nH]c2c1 [Compound 23, N-[2-[7-[4-fluoro-2-(2-methoxyethoxy)phenyl]-4-(1,2,3,4-tetrahydroisoquinolin-6-yl)thieno[3,2-c]pyridin-6-yl]-3H-benzimidazol-5-yl]prop-2-enamide]",% of modification,[2]; [3],A (percent of modification of PIK3CA protein ≥75%)
same,IC50,"pAKT in BT474 cells; Homo sapiens, BT-474, Compounds 10-999",1000 to 3000 nM
same,IC50,[1],> 25 µM
"C=CC(=O)N1CCc2ncc(-c3nc(-c4ccc5c(cnn5C)c4)c4sccc4c3-c3c(F)cc(F)cc3OCCOC)cc2C1 [Compound 1261, 1-[3-[4-[2,4-difluoro-6-(2-methoxyethoxy)phenyl]-7-(1-methylindazol-5-yl)thieno[2,3-c]pyridin-5-yl]-7,8-dihydro-5H-1,6-naphthyridin-6-yl]prop-2-en-1-one]",% of modification,[2]; [4],A (percent of modification of PIK3CA protein ≥75%)
same,IC50,"pAKT in BT474 cells; Homo sapiens, BT-474, Compounds 1000-1279",< 100 nM
C=CC(=O)N1CCc2nc(-c3nc(-c4ccc5c(c4)CCN(CC(F)F)CC5)c4ccsc4c3-c3c(F)cc(F)cc3OCCOC)sc2C1 [Compound 1270],% of modification,[2]; [4],A (percent of modification of PIK3CA protein ≥75%)
same,IC50,pAKT in BT474 cells; Compounds 1000-1279,100 to 1000 nM
C=CC(=O)N1CCc2ccc(-c3nc(-c4ccc5c(c4)CCN(CC(F)F)CC5)c4ccsc4c3-c3c(F)cc(F)cc3OCCOC)cc2C1 [Compound 1271],% of modification,[2]; [4],D (percent of modification <25%)
same,IC50,pAKT in BT474 cells; Compounds 1000-1279,> 1000 nM
C=CC(=O)N1CCc2ccc(-c3nc(-c4ccc5c(c4)CN(C)CC5(F)F)c4ccsc4c3-c3c(F)cc(F)cc3OCCOC)cc2C1 [Compound 1272],% of modification,[2]; [4],D (percent of modification <25%)
same,IC50,pAKT in BT474 cells; Compounds 1000-1279,> 1000 nM
C=CC(=O)N1CCc2ccc(-c3nc(-c4ccc5c(c4)CN(CCO)CC5(F)F)c4ccsc4c3-c3c(F)cc(F)cc3OCCOC)cc2C1 [Compound 1273],% of modification,[2]; [4],D (percent of modification <25%)
same,IC50,pAKT in BT474 cells; Compounds 1000-1279,> 1000 nM
C=CC(=O)N1CCc2ncc(-c3nc(-c4ccc5c(c4)CN(C)CC5(F)F)c4ccsc4c3-c3c(F)cc(F)cc3OCCOC)cc2C1 [Compound 1274],% of modification,[2]; [4],A (percent of modification of PIK3CA protein ≥75%)
same,IC50,pAKT in BT474 cells; Compounds 1000-1279,< 100 nM
C=CC(=O)N1CCn2nc(-c3nc(-c4ccc5c(c4)CN(C)CC5(F)F)c4ccsc4c3-c3c(F)cc(F)cc3OC)cc2C1C (stereo not drawn) [Compound 1275],% of modification,[2]; [4],A (percent of modification of PIK3CA protein ≥75%)
same,IC50,pAKT in BT474 cells; Compounds 1000-1279,< 100 nM
C=CC(=O)N1CCc2nc(-c3nc(-c4ccc5c(c4)CN(C)CC5(F)F)c4ccsc4c3-c3c(F)cc(F)cc3OCCOC)sc2C1 [Compound 1276],% of modification,[2]; [4],A (percent of modification of PIK3CA protein ≥75%)
same,IC50,pAKT in BT474 cells; Compounds 1000-1279,100 to 1000 nM
C=CC(=O)N1CCc2ccc(-c3nc(-c4ccc5c(c4)CN(CCOC)CC5(F)F)c4ccsc4c3-c3c(F)cc(F)cc3OCCOC)cc2C1 [Compound 1277],% of modification,[2]; [4],D (percent of modification <25%)
same,IC50,pAKT in BT474 cells; Compounds 1000-1279,> 1000 nM
C=CC(=O)N1CCc2ncc(-c3nc(-c4ccc5c(c4)CN(CCOC)CC5(F)F)c4ccsc4c3-c3c(F)cc(F)cc3OCCOC)cc2C1 [Compound 1278],% of modification,[2]; [4],A (percent of modification of PIK3CA protein ≥75%)
same,IC50,pAKT in BT474 cells; Compounds 1000-1279,< 100 nM
C=CC(=O)N1CCc2ncc(-c3nc(-c4cnc5c(c4)CN(C)CC5(F)F)c4ccsc4c3-c3c(F)cc(F)cc3OCCOC)cc2C1 [Compound 1279],% of modification,[2]; [4],A (percent of modification of PIK3CA protein ≥75%)
same,IC50,pAKT in BT474 cells; Compounds 1000-1279,< 100 nM
COCCOc1ccccc1-c1c(-c2cccc(C#N)c2)nc(-c2ccc3c(c2)CCNC3)c2c1CCC2 [compound 2],IC50,[1],> 25 µM
COCCOc1ccccc1-c1c(-c2ccccc2)nc(-c2ccc3c(c2)CCNC3)c2c1CCC2 [compound 3],IC50,[1],> 25 µM
COCCOc1ccccc1-c1c(-c2ccc(=O)n(C)c2)nc(-c2ccc3c(c2)CCNC3)c2c1CCC2 [compound 5],IC50,[1],> 25 µM
COCCOc1cc(F)ccc1-c1c(-c2nc3ccc(C(C)C)cc3[nH]2)nc(-c2ccc3c(c2)CCNC3)c2ccsc12 [compound 20],IC50,[1],> 25 µM
COCCOc1cc(F)ccc1-c1c(-c2cnn(CCNC(=O)C(C)C)c2)nc(-c2ccc3c(c2)CCNC3)c2ccsc12 [compound 21],IC50,[1],5 to 25 µM
C=CC(=O)NCCn1cc(-c2nc(-c3ccc4c(c3)CCNC4)c3ccsc3c2-c2ccc(F)cc2OCCOC)cn1 [compound 22],% of modification,[2]; [3],B (50%<percent of modification <75%)
same,IC50,[1],5 to 25 µM
COCCOc1cc(F)ccc1-c1c(-c2cnn(CC(=O)NC(C)(C)C)c2)nc(-c2ccc3c(c2)CCNC3)c2ccsc12 [compound 24],IC50,[1],< 5 µM
COCCOc1cc(F)ccc1-c1c(-c2cnn(CC(=O)N3CCCC3)c2)nc(-c2ccc3c(c2)CCNC3)c2ccsc12 [compound 25],IC50,[1],5 to 25 µM
COCCOc1cc(F)ccc1-c1c(-c2ccc(=O)n(C(C)C)c2)nc(-c2ccc3c(c2)CCNC3)c2ccsc12 [compound 26],IC50,[1],< 5 µM
COCCOc1cc(F)ccc1-c1c(-c2cccc(CNC(=O)C3CCCC3)c2)nc(-c2ccc3c(c2)CCNC3)c2ccsc12 [compound 27],IC50,[1],< 5 µM
C=CC(=O)N1CCC(n2cc(-c3nc(-c4ccc5c(c4)CCNC5)c4ccsc4c3-c3ccc(F)cc3OCCOC)cn2)C1 (stereo not drawn) [compound 28],% of modification,[2]; [3],A (percent of modification of PIK3CA protein ≥75%)
same,IC50,pAKT in BT474 cells; Compounds 10-999,< 100 nM
same,IC50,[1],5 to 25 µM
COCCOc1cc(F)ccc1-c1c(-c2c[nH]cn2)nc(-c2ccc3c(c2)CCNC3)c2ccsc12 [compound 34],IC50,[1],5 to 25 µM
C=CC(=O)n1cnc(-c2nc(-c3ccc4c(c3)CCNC4)c3ccsc3c2-c2ccc(F)cc2OCCOC)c1 [compound 35],% of modification,[2]; [3],D (percent of modification <25%)
same,IC50,[1],5 to 25 µM
COCCOc1cc(F)ccc1-c1c(-c2cnn(CCC(=O)NC(C)(C)C)c2)nc(-c2ccc3c(c2)CCNC3=O)c2ccsc12 [compound 37],IC50,[1],5 to 25 µM
C=CC(=O)NCc1csc(-c2nc(-c3ccc4c(c3)CCNC4)c3ccsc3c2-c2ccc(F)cc2OCCOC)n1 [compound 38],% of modification,[2]; [3],B (50%<percent of modification <75%)
same,IC50,[1],5 to 25 µM
COCCOc1cc(F)ccc1-c1c(-c2nc(CO)cs2)nc(-c2ccc3c(c2)CCNC3)c2ccsc12 [compound 39],IC50,[1],5 to 25 µM
COCCOc1cc(F)ccc1-c1c(-c2ccc3cc[nH]c3c2)nc(-c2ccc3c(c2)CCNC3)c2ccsc12 [compound 45],IC50,[1],5 to 25 µM
C=CC(=O)N1CCC(n2cc(-c3nc(-c4cnn(C)c4)c4ccsc4c3-c3ccc(F)cc3OCCOC)cn2)CC1 [compound 49],% of modification,[2]; [3],A (percent of modification of PIK3CA protein ≥75%)
same,IC50,pAKT in BT474 cells; Compounds 10-999,100 to 1000 nM
same,IC50,[1],> 25 µM
C=CC(=O)N1CCC(n2cc(-c3nc(-c4ccc5c(c4)CNC(=O)C5)c4ccsc4c3-c3ccc(F)cc3OCCOC)cn2)CC1 [compound 50],% of modification,[2]; [3],A (percent of modification of PIK3CA protein ≥75%)
same,IC50,pAKT in BT474 cells; Compounds 10-999,< 100 nM
same,IC50,[1],5 to 25 µM
C=CC(=O)Nc1cccc(-c2nc(-c3cnn(C)c3)c3ccsc3c2-c2ccc(F)cc2OCCOC)c1 [compound 52],% of modification,[2]; [3],A (percent of modification of PIK3CA protein ≥75%)
same,IC50,pAKT in BT474 cells; Compounds 10-999,100 to 1000 nM
same,IC50,[1],5 to 25 µM
C=CC(=O)N1CC[C@H](n2cc(-c3nc(-c4cnn(C)c4)c4ccsc4c3-c3ccc(F)cc3OCCOC)cn2)C1 [compound 53],% of modification,[2]; [3],A (percent of modification of PIK3CA protein ≥75%)
same,IC50,pAKT in BT474 cells; Compounds 10-999,100 to 1000 nM
same,IC50,[1],5 to 25 µM
COCCOc1cc(F)ccc1-c1c(-c2cnn(C3CCN(C(=O)/C=C/CN(C)C)C3)c2)nc(-c2ccc3c(c2)CCNC3)c2ccsc12 (stereo not drawn) [compound 56],% of modification,[2]; [3],B (50%<percent of modification <75%)
same,IC50,[1],5 to 25 µM
C=CC(=O)Nc1cccc(-c2nc(-c3ccc4c(c3)CCC(O)C4)c3ccsc3c2-c2ccc(F)cc2OCCOC)c1 (stereo not drawn) [compound 57],% of modification,[2]; [3],B (50%<percent of modification <75%)
same,IC50,[1],> 25 µM
COCCOc1cc(F)ccc1-c1c(-c2ccc3c(c2)CCN(C)C3)nc(-c2ccc3c(c2)CCNC3)c2ccsc12 [compound 229],IC50,pAKT in BT474 cells; Compounds 10-999,> 3000 nM
same,IC50,[1],< 5 µM
